Laboratory results: PubChem BioAssay (NCI)
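Step 1: Grow cells in 96-well plates. Step 2: Expose to compound for 48 hours at 5 concentrations. Step 3: Interpolate endpoints linearly; if unreached, use highest concentration. GI50 = concentration required for 50% inhibition of growth. The concentration for full growth arrest is given as TGI.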

Assays:
Assay in all cases: DTP human tumour cell line panel, 48 h
786-0 renal = test system: 786-0 renal
A498 renal = test system: A498 renal
A549 NSCLC = test system: A549 NSCLC
ACHN renal = test system: ACHN renal
BT-549 breast = test system: BT-549 breast
CAKI-1 renal = test system: CAKI-1 renal
CCRF-CEM leukemia = test system: CCRF-CEM leukemia
COLO 205 colon = test system: COLO 205 colon
DU-145 prostate = test system: DU-145 prostate
EKVX NSCLC = test system: EKVX NSCLC
HCC-2998 colon = test system: HCC-2998 colon
HCT-116 colon = test system: HCT-116 colon
HCT-15 colon = test system: HCT-15 colon
HL-60(TB) leukemia = test system: HL-60(TB) leukemia
HOP-62 NSCLC = test system: HOP-62 NSCLC
HOP-92 NSCLC = test system: HOP-92 NSCLC
HS 578T breast = test system: HS 578T breast
HT29 colon = test system: HT29 colon
IGROV1 ovarian = test system: IGROV1 ovarian
K-562 leukemia = test system: K-562 leukemia
KM12 colon = test system: KM12 colon
LOX IMVI melanoma = test system: LOX IMVI melanoma
M14 melanoma = test system: M14 melanoma
MALME-3M melanoma = test system: MALME-3M melanoma
MCF7 breast = test system: MCF7 breast
MDA-MB-231 breast = test system: MDA-MB-231 breast
MDA-MB-435 = test system: MDA-MB-435
MOLT-4 leukemia = test system: MOLT-4 leukemia
NCI-H226 lung = test system: NCI-H226 lung
NCI-H23 lung = test system: NCI-H23 lung
NCI-H460 lung = test system: NCI-H460 lung
NCI/ADR-RES ovarian = test system: NCI/ADR-RES ovarian
OVCAR-3 ovarian = test system: OVCAR-3 ovarian
OVCAR-4 ovarian = test system: OVCAR-4 ovarian
OVCAR-5 ovarian = test system: OVCAR-5 ovarian
OVCAR-8 ovarian = test system: OVCAR-8 ovarian
PC-3 prostate = test system: PC-3 prostate
RPMI-8226 leukemia = test system: RPMI-8226 leukemia
RXF 393 renal = test system: RXF 393 renal
SF-268 CNS = test system: SF-268 CNS
SF-295 CNS = test system: SF-295 CNS
SF-539 CNS = test system: SF-539 CNS
SK-MEL-2 melanoma = test system: SK-MEL-2 melanoma
SK-MEL-28 melanoma = test system: SK-MEL-28 melanoma
SK-MEL-5 melanoma = test system: SK-MEL-5 melanoma
SK-OV-3 ovarian = test system: SK-OV-3 ovarian
SN12C renal = test system: SN12C renal
SNB-19 CNS = test system: SNB-19 CNS
SNB-75 CNS = test system: SNB-75 CNS
SR leukemia = test system: SR leukemia
SW-620 colon = test system: SW-620 colon
T-47D breast = test system: T-47D breast
TK-10 renal = test system: TK-10 renal
U251 CNS = test system: U251 CNS
UACC-257 melanoma = test system: UACC-257 melanoma
UACC-62 melanoma = test system: UACC-62 melanoma
UO-31 renal = test system: UO-31 renal

With `C=C(C=O)[C@@H]1CC[C@]2(CO)CC[C@]3(C)[C@H](CC[C@@H]4[C@@]5(C)CCCNC(C)(C)[C@@H]5CC[C@]43C)[C@@H]12` the GI50 (786-0 renal) was 14.9 µM, the TGI (786-0 renal) was 32.3 µM and the GI50 (A498 renal) was 570 nM. The TGI (A498 renal) was 93.6 µM, the GI50 (A549 NSCLC) was 15.5 µM and the TGI (A549 NSCLC) was 46 µM. For the same molecule, the GI50 (ACHN renal) was 15 µM, the TGI (ACHN renal) was 31.2 µM and the GI50 (BT-549 breast) was 8.94 µM. The TGI (BT-549 breast) was 22.8 µM, the GI50 (CAKI-1 renal) was 14.3 µM and the TGI (CAKI-1 renal) was 31.8 µM. For the same molecule, the GI50 (CCRF-CEM leukemia) was 2210 nM, the TGI (CCRF-CEM leukemia) was 6.22 µM and the GI50 (COLO 205 colon) was 12.8 µM. The TGI (COLO 205 colon) was 29.4 µM, the GI50 (DU-145 prostate) was 7.13 µM and the TGI (DU-145 prostate) was 20.3 µM. The GI50 (EKVX NSCLC) was 11.1 µM, the TGI (EKVX NSCLC) was 30.8 µM and the GI50 (HCC-2998 colon) was 1910 nM. For the same molecule, the TGI (HCC-2998 colon) was 3.67 µM, the GI50 (HCT-116 colon) was 1800 nM and the TGI (HCT-116 colon) was 3.57 µM. It also gave a GI50 (HCT-15 colon) of 1990 nM, a TGI (HCT-15 colon) of 7.4 µM and a GI50 (HL-60(TB) leukemia) of 1960 nM. The TGI (HL-60(TB) leukemia) was 4.36 µM, the GI50 (HOP-62 NSCLC) was 14.6 µM and the TGI (HOP-62 NSCLC) was 31.3 µM. It also gave a GI50 (HOP-92 NSCLC) of 2120 nM, a TGI (HOP-92 NSCLC) of 7.64 µM and a GI50 (HS 578T breast) of 9.64 µM. The TGI (HS 578T breast) was 50.6 µM, the GI50 (HT29 colon) was 2310 nM and the TGI (HT29 colon) was 5.95 µM. It also gave a GI50 (IGROV1 ovarian) of 3.34 µM, a TGI (IGROV1 ovarian) of 13.1 µM and a GI50 (K-562 leukemia) of 1930 nM. It also gave a TGI (K-562 leukemia) of 5.44 µM, a GI50 (KM12 colon) of 3.01 µM and a TGI (KM12 colon) of 9.33 µM. For the same molecule, the GI50 (LOX IMVI melanoma) was 1740 nM, the TGI (LOX IMVI melanoma) was 3.3 µM and the GI50 (M14 melanoma) was 7.77 µM. It also gave a TGI (M14 melanoma) of 23.3 µM, a GI50 (MALME-3M melanoma) of 10.8 µM and a TGI (MALME-3M melanoma) of 26.4 µM. For the same molecule, the GI50 (MCF7 breast) was 1650 nM, the TGI (MCF7 breast) was 5.14 µM and the GI50 (MDA-MB-231 breast) was 14 µM. The TGI (MDA-MB-231 breast) was 31.5 µM, the GI50 (MDA-MB-435) was 4.8 µM and the TGI (MDA-MB-435) was 18.2 µM. It also gave a GI50 (MOLT-4 leukemia) of 3.64 µM, a TGI (MOLT-4 leukemia) of 16 µM and a GI50 (NCI-H226 lung) of 5.09 µM. For the same molecule, the TGI (NCI-H226 lung) was 23.6 µM, the GI50 (NCI-H23 lung) was 6.16 µM and the TGI (NCI-H23 lung) was 21.1 µM. It also gave a GI50 (NCI-H460 lung) of 11 µM, a TGI (NCI-H460 lung) of 25.9 µM and a GI50 (NCI/ADR-RES ovarian) of 4.15 µM. The TGI (NCI/ADR-RES ovarian) was 23 µM, the GI50 (OVCAR-3 ovarian) was 3.35 µM and the TGI (OVCAR-3 ovarian) was 11.9 µM. For the same molecule, the GI50 (OVCAR-4 ovarian) was 6.16 µM, the TGI (OVCAR-4 ovarian) was 23.2 µM and the GI50 (OVCAR-5 ovarian) was 9.72 µM. It also gave a TGI (OVCAR-5 ovarian) of 23 µM, a GI50 (OVCAR-8 ovarian) of 7.29 µM and a TGI (OVCAR-8 ovarian) of 78.8 µM. For the same molecule, the GI50 (PC-3 prostate) was 2910 nM, the TGI (PC-3 prostate) was 18.8 µM and the GI50 (RPMI-8226 leukemia) was 2960 nM. For the same molecule, the TGI (RPMI-8226 leukemia) was 13.9 µM, the GI50 (RXF 393 renal) was 3.83 µM and the TGI (RXF 393 renal) was 16.3 µM. It also gave a GI50 (SF-268 CNS) of 16.1 µM, a TGI (SF-268 CNS) of 50.8 µM and a GI50 (SF-295 CNS) of 13.8 µM. The TGI (SF-295 CNS) was 27.6 µM, the GI50 (SF-539 CNS) was 7.78 µM and the TGI (SF-539 CNS) was 20.4 µM. The GI50 (SK-MEL-2 melanoma) was 12 µM, the TGI (SK-MEL-2 melanoma) was 27.2 µM and the GI50 (SK-MEL-28 melanoma) was 3.15 µM. The TGI (SK-MEL-28 melanoma) was 12.6 µM, the GI50 (SK-MEL-5 melanoma) was 10.3 µM and the TGI (SK-MEL-5 melanoma) was 22.3 µM. For the same molecule, the GI50 (SK-OV-3 ovarian) was 40 µM, the TGI (SK-OV-3 ovarian) was over 100 µM and the GI50 (SN12C renal) was 14 µM. It also gave a TGI (SN12C renal) of 35.2 µM, a GI50 (SNB-19 CNS) of 8.56 µM and a TGI (SNB-19 CNS) of 21.3 µM. It also gave a GI50 (SNB-75 CNS) of 9.07 µM, a TGI (SNB-75 CNS) of 61.8 µM and a GI50 (SR leukemia) of 1750 nM. For the same molecule, the TGI (SR leukemia) was 3.74 µM, the GI50 (SW-620 colon) was 2010 nM and the TGI (SW-620 colon) was 5.52 µM. For the same molecule, the GI50 (T-47D breast) was 2760 nM, the TGI (T-47D breast) was 17.9 µM and the GI50 (TK-10 renal) was 28.5 µM. For the same molecule, the TGI (TK-10 renal) was 69.9 µM, the GI50 (U251 CNS) was 4.43 µM and the TGI (U251 CNS) was 17.8 µM. It also gave a GI50 (UACC-257 melanoma) of 11.3 µM, a TGI (UACC-257 melanoma) of 31.7 µM and a GI50 (UACC-62 melanoma) of 13.1 µM. It also gave a TGI (UACC-62 melanoma) of 27.9 µM, a GI50 (UO-31 renal) of 14.9 µM and a TGI (UO-31 renal) of 38.7 µM.
